Several values for one entry are separate records, joined by “and”; a condition that tells them apart may be missing. Identical values can stand only once. Entries after “also recorded” stand apart in the source; their conditions may differ. Like-named read-outs stand apart in the source and are kept apart here.
Experiments:
[1] = system: MitoTox Reporter cells (MDA-MB-231 expressing Laconic); assay: Pilot screening of 13 compounds with MitoTox Reporter cells, multiplate reader; assay type: cell-based; conditions: for ΔR% (lactate accumulation): average of 4 replicate wells, Fig 9 legend 30 minutes, 37°C; for Concentration at which toxicity / mitochondrial effects were detected in the pilot screening: tested at 1, 5 and 10 μM; for ΔR% variation / lactate accumulation over all concentrations tested: 1, 5, and 10 μM
Experimental: MitoTox reporter cell line was cultured in Leibowitz media (Gibco) supplemented with 10% of fetal bovine serum (FBS) at 37°C at atmospheric CO2 levels in a 100 mm petri dish. Once cells reached 100% confluency, they were trypsinized using 5% trypsin (Gibco) and washed in PBS. Viability was determine using trypan blue staining and 10,000 cells were seeded into each well of a 96 well plate. Experiments in 96 well format were performed once cells reached 100% confluency after 6 days, during the incubation media was not replaced. All the plates with signal-to-noise ration below 1.3 for monomeric Teal Fluorescent Protein (mTFP) and Venus channels were discarded. Background signal was determined with KRH buffer without cells. Experiments consisted in washing out the culture media using KRH HEPES buffer containing (mM) 136 NaCl, 3 KCl, 1.25 CaCl2, 1.25 MgCl2, 10 HEPES/Tris and pH 7.2 at 37°C with 300 mOsm. Then 200 μl of KRH HEPES buffer without any carbon sources was added to each well and the baseline was measured (RMIN), then 100 μl of buffer was replaced with mitochondrial toxicant/controls and signal was measured to obtain a stimulated response (RMAX). In experiments were pCMBS was used to block lactate exit, the inhibitor was added simultaneously with the mitochondrial toxicants. Data was collected in triplicated after 5, 10, 30, and 60 minutes of incubation. All the experiments in 96 well plates were performed in an EnVision® multiplate reader (PerkinElmer). Each well was excited at 430 nm and the intensity of mTFP and Venus fluorescence emission were recorded at 485 nm and 528 nm, using a set of filters.
Where R(mTFP/Venus) min corresponded to the minimal change of mTFP/Venus ratio during the single-cell experiments. Results in 96 well plates experiments were expressed by the ΔR%. This parameter was obtained from the difference between the RMAX and RMIN from the same well (before-after experiment) as follow: ΔR%=(R(mTFP/Venus)max−R(mTFP/Venus)min/R(mTFP/Venus)min)x100
Multiple comparisons versus control groups (Holm-Sidak method), Overall significance level P < 0,05.
The capability of the assay to identify previously described toxic drugs was explored through a pilot screening assay. We selected 13 compounds from a variety of therapeutic classes to perform a pilot screening assay using MitoTox Reporter cells and a standard multiplate reader. […] To perform the assays, we prepared master stocks for each compound in 0.2% DMSO. Assays were performed with compounds at final concentrations of 1, 5, and 10 μM and the response of MitoTox Reporter cells were measured at 5, 10, 30, and 60 minutes. […] As a negative control we selected a compound with no reported side-effects.

[2] = system: mitochondrial membrane potential (MMP); conditions: cited from earlier work
[3] = treatment time 6 hours, ref Li et al., 2014 [50], read-out: IC50, MMP

Row | Structure (SMILES) | ΔR% (lactate accumulation) ([1]; 10 μM) [%] | Concentration at which toxicity / mitochondrial effects were detected in the pilot screening [1] [µM] | ΔR% variation / lactate accumulation over all concentrations tested [1] | IC50 [2, 3] [µM] | further results
1 | CC(C)(C)c1ccc(C(O)CCCN2CCC(C(O)(c3ccccc3)c3ccccc3)CC2)cc1 (stereo not shown) [terfenadine] | 15.64 ± 1.32 | 10 | – | – | ΔR% (lactate accumulation) ([1]; 1 μM): without any measurable effects; ΔR% (lactate accumulation) ([1]; 5 μM): without any measurable effects; IC50 ([2]; unit inferred, read-out: IC50, MMP measurements): 4.4 µM
2 | CCC(C)(C)C(=O)O[C@H]1C[C@@H](C)C=C2C=C[C@H](C)[C@H](CC[C@@H]3C[C@@H](O)CC(=O)O3)[C@H]21 [simvastatin] | – | – | None of these molecules produced an important ΔR% variation | 63.2 | –
3 | CN(C)C(=N)N=C(N)N [metformin] | – | – | None of these molecules produced an important ΔR% variation; also recorded: did not induce intra-cellular lactate accumulation | – | –
4 | COc1cc([C@@H]2c3cc4c(cc3[C@@H](O[C@@H]3O[C@@H]5CO[C@@H](C)O[C@H]5[C@H](O)[C@H]3O)[C@H]3COC(=O)[C@H]23)OCO4)cc(OC)c1O [etoposide] | – | – | None of these molecules produced an important ΔR% variation; also recorded: did not induce intra-cellular lactate accumulation | – | –
5 | COc1cc2nc(N3CCN(C(=O)c4ccco4)CC3)nc(N)c2cc1OC [prazosin] | – | – | None of these molecules produced an important ΔR% variation | 6.3 | –
6 | CC1(C)NC(=O)N(c2ccc([N+](=O)[O-])c(C(F)(F)F)c2)C1=O [nilutamide] | – | – | did not produce ΔR% changes at all the concentrations tested | – | ΔR% variation / lactate accumulation over all concentrations tested ([1]; listed as nilutamine): did not produce any effect
7 | CC(=O)Oc1ccccc1C(=O)O [aspirin, acetylsalicylic acid] | – | – | None of these molecules produced an important ΔR% variation; also recorded: did not induce intra-cellular lactate accumulation | – | –
8 | CC(C)C(=O)Nc1ccc([N+](=O)[O-])c(C(F)(F)F)c1 [flutamide] | 8.71 ± 2.06 | 10 | – | – | –
9 | CC[C@@]1(O)C(=O)OCc2c1cc1n(c2=O)Cc2cc3ccccc3nc2-1 [camptothecin] | 49.18 ± 7.4 | 5 | – | 206 | ΔR% (lactate accumulation) ([1]; 1 μM): no change in ΔR% was detected; ΔR% (lactate accumulation) ([1]; 5 μM): potent effect and 13.52 ± 3.6%; Cytosolic lactate accumulation (concentration) ([1]; 10 μM, inferred from the reported dynamic range and sensitivity of Laconic): over 10 mM

— publication PMC6822764, “MitoToxy assay: A novel cell-based method for the assessment of metabolic toxicity in a multiwell plate format using a lactate FRET nanosensor, Laconic” (PLoS ONE, 2019)
